The results in this text go back to patent US12404261B2, “Compounds and compositions for treating conditions associated with cGAS” (Novartis AG, priority 2020, dated 2025).

The structures appear in SMILES notation.

In general, IC50 refers to the concentration needed to halve the response being measured.

The target in this assay is human truncated cGAS enzyme (147-522 human cGAS) (Homo sapiens (Human), UniProt Q8N884). Put plainly: Quantification of cGAS protein inhibition (cGAMP formation measured by LC-MS/MS). In kind it is biochemical. Particulars: reported for the potential mixture in solution of co-existing tautomers and/or racemates. The method in brief: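 Human cGAS 147-522 (30 nM) in Tris pH 7.5, NaCl, MgCl2, ZnCl2, Tween 20, started with 5 μM ISD 45 bp dsDNA, 0.5 mM GTP and 0.5 mM ATP. Incubated 1 h at room temperature, then quenched with acetonitrile/TFA. cGAMP quantified by LC-MS/MS against a labelled cGAMP internal standard; IC50 from ratio versus compound concentration.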
human truncated cGAS enzyme (147-522 human cGAS), sequence (Q8N884 147-522): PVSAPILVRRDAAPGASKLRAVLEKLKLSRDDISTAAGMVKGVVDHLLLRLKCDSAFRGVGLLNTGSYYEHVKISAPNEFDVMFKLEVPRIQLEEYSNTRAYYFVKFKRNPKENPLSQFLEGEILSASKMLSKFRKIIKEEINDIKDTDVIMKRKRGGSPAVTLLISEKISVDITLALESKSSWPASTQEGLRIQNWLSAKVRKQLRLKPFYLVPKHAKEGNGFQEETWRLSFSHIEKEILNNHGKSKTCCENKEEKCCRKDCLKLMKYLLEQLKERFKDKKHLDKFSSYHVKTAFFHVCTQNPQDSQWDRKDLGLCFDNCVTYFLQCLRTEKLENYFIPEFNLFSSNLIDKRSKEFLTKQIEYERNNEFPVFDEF
With `Cn1c(-c2nnc(C(F)(F)F)[nH]2)c(-n2ccnc2)c2ccc(Cl)c(C#N)c21` [Example 111, 6-chloro-3-(1H-imidazol-1-yl)-1-methyl-2-(5-(trifluoromethyl)-4H-1,2,4-triazol-3-yl)-1H-indole-7-carbonitrile], the IC50 came out at 0.201 µM.

Turning to `FC(F)Oc1cc2c(-n3ccnc3)c(-c3nnc(C(F)(F)F)[nH]3)[nH]c2cc1Cl` [Example 112, 6-chloro-5-(difluoromethoxy)-3-(1H-imidazol-1-yl)-2-(5-(trifluoromethyl)-4H-1,2,4-triazol-3-yl)-1H-indole], the half-maximal inhibitory concentration (IC50) came out at 0.659 µM.

On to `COc1cc2c(-n3ccnc3)c(-c3nnc(C(F)(F)F)[nH]3)n(C)c2cc1Cl` [Example 114, 6-chloro-3-(1H-imidazol-1-yl)-5-methoxy-1-methyl-2-(5-(trifluoromethyl)-4H-1,2,4-triazol-3-yl)-1H-indole], for which the concentration for half-maximal inhibition (IC50) came out at 0.14 µM.

As to `COc1cc2c(-n3ccnc3)c(-c3nnc(C(=O)N(C)C)[nH]3)n(C)c2cc1Cl` [Example 116, 5-(6-chloro-3-(1H-imidazol-1-yl)-5-methoxy-1-methyl-1H-indol-2-yl)-N,N-dimethyl-4H-1,2,4-triazole-3-carboxamide], the IC50 was found to be 0.103 µM.

Turning to `Cn1c(-c2nnc(CCO)[nH]2)c(-n2ccnc2)c2cc(O)c(Cl)c(C#N)c21` [Example 117, 6-chloro-5-hydroxy-2-(5-(2-hydroxyethyl)-4H-1,2,4-triazol-3-yl)-3-(1H-imidazol-1-yl)-1-methyl-1H-indole-7-carbonitrile], the IC50 came to 0.169 µM.

On to `COc1cc2c(-n3ccnc3)c(-c3nnc(CCO)[nH]3)n(C)c2c(C#N)c1Cl` [Example 118, 6-chloro-2-(5-(2-hydroxyethyl)-4H-1,2,4-triazol-3-yl)-3-(1H-imidazol-1-yl)-5-methoxy-1-methyl-1H-indole-7-carbonitrile], for which the half-inhibitory concentration (IC50) was determined as 0.291 µM.

For the compound `COc1cc2c(-n3ccnc3)c(-c3nnc(CCO)[nH]3)n(C)c2cc1Cl` [Example 119, 2-(5-(6-chloro-3-(1H-imidazol-1-yl)-5-methoxy-1-methyl-1H-indol-2-yl)-4H-1,2,4-triazol-3-yl)ethan-1-ol], the concentration for half-maximal inhibition (IC50) was found to be 0.99 µM.

As to `COc1cc2c(-n3ccnc3)c(-c3nnc(C(C)N4CCOCC4)[nH]3)n(C)c2c(F)c1Cl` (stereo not shown) [Example 121, 4-(1-(5-(6-chloro-7-fluoro-3-(1H-imidazol-1-yl)-5-methoxy-1-methyl-1H-indol-2-yl)-4H-1,2,4-triazol-3-yl)ethyl)morpholine], the concentration for half-maximal inhibition (IC50) turned out to be 0.08 µM.

Turning to `COc1cc2c(-n3ccnc3)c(-c3nnc(C(C)N(C)C)[nH]3)n(C)c2c(F)c1Cl` (stereo not shown) [Example 122, 1-(5-(6-chloro-7-fluoro-3-(1H-imidazol-1-yl)-5-methoxy-1-methyl-1H-indol-2-yl)-4H-1,2,4-triazol-3-yl)-N,N-dimethylethan-1-amine], the 50% inhibitory concentration (IC50) amounted to 0.177 µM.

Turning to `CNC(C)c1nnc(-c2c(-n3ccnc3)c3cc(OC)c(Cl)c(F)c3n2C)[nH]1` (stereo not shown) [Example 123, 1-(5-(6-chloro-7-fluoro-3-(1H-imidazol-1-yl)-5-methoxy-1-methyl-1H-indol-2-yl)-4H-1,2,4-triazol-3-yl)-N-methylethan-1-amine], the half-inhibitory concentration (IC50) was determined as 0.121 µM.

Regarding `COC[C@@H](c1nnc(-c2c(-n3ccnc3)c3cc(OC)c(Cl)c(F)c3n2C)[nH]1)N(C)C` [Example 124a, (R)-1-(5-(6-chloro-7-fluoro-3-(1H-imidazol-1-yl)-5-methoxy-1-methyl-1H-indol-2-yl)-4H-1,2,4-triazol-3-yl)-2-methoxy-N,N-dimethylethan-1-amine], the IC50 turned out to be 0.12 µM.

As to `COC[C@H](c1nnc(-c2c(-n3ccnc3)c3cc(OC)c(Cl)c(F)c3n2C)[nH]1)N(C)C` [Example 124b, (S)-1-(5-(6-chloro-7-fluoro-3-(1H-imidazol-1-yl)-5-methoxy-1-methyl-1H-indol-2-yl)-4H-1,2,4-triazol-3-yl)-2-methoxy-N,N-dimethylethan-1-amine], the IC50 was found to be 0.14 µM.

For the compound `CN[C@@H](COC)c1nnc(-c2c(-n3ccnc3)c3cc(OC)c(Cl)c(F)c3n2C)[nH]1` [Example 125a, (R)-1-(5-(6-chloro-7-fluoro-3-(1H-imidazol-1-yl)-5-methoxy-1-methyl-1H-indol-2-yl)-4H-1,2,4-triazol-3-yl)-2-methoxy-N-methylethan-1-amine], the half-maximal inhibitory concentration (IC50) is 0.18 µM.

`CN[C@H](COC)c1nnc(-c2c(-n3ccnc3)c3cc(OC)c(Cl)c(F)c3n2C)[nH]1` [Example 125b, (S)-1-(5-(6-chloro-7-fluoro-3-(1H-imidazol-1-yl)-5-methoxy-1-methyl-1H-indol-2-yl)-4H-1,2,4-triazol-3-yl)-2-methoxy-N-methylethan-1-amine]: the IC50 amounted to 0.18 µM.

On to `COCC(c1nnc(-c2c(-n3ccnc3)c3cc(OC)c(Cl)c(F)c3n2C)[nH]1)N1CCOCC1` (stereo not shown) [Example 126, 4-(1-(5-(6-chloro-7-fluoro-3-(1H-imidazol-1-yl)-5-methoxy-1-methyl-1H-indol-2-yl)-4H-1,2,4-triazol-3-yl)-2-methoxyethyl)morpholine], for which the half-inhibitory concentration (IC50) amounted to 0.411 µM.

With `COCC(c1nnc(-c2c(-n3ccnc3)c3cc(OC)c(Cl)c(F)c3n2C)[nH]1)N1CCC1` (stereo not shown) [Example 127, 2-(5-(1-(azetidin-1-yl)-2-methoxyethyl)-4H-1,2,4-triazol-3-yl)-6-chloro-7-fluoro-3-(1H-imidazol-1-yl)-5-methoxy-1-methyl-1H-indole], the IC50 worked out at 0.487 µM.

On to `COCCN(C)C(C)c1nnc(-c2c(-n3ccnc3)c3cc(OC)c(Cl)c(F)c3n2C)[nH]1` (stereo not shown) [Example 128, 1-(5-(6-chloro-7-fluoro-3-(1H-imidazol-1-yl)-5-methoxy-1-methyl-1H-indol-2-yl)-4H-1,2,4-triazol-3-yl)-N-(2-methoxyethyl)-N-methylethan-1-amine], for which the 50% inhibitory concentration (IC50) was 0.454 µM.

`COCCNC(C)c1nnc(-c2c(-n3ccnc3)c3cc(OC)c(Cl)c(F)c3n2C)[nH]1` (stereo not shown) [Example 129, 1-(5-(6-chloro-7-fluoro-3-(1H-imidazol-1-yl)-5-methoxy-1-methyl-1H-indol-2-yl)-4H-1,2,4-triazol-3-yl)-N-(2-methoxyethyl)ethan-1-amine]: the IC50 came out at 0.757 µM.

Consider `COc1cc2c(-n3ccnc3)c(-c3nnc(C(C)N4CC5(COC5)C4)[nH]3)n(C)c2c(F)c1Cl` (stereo not shown) [Example 130, 6-(1-(5-(6-chloro-7-fluoro-3-(1H-imidazol-1-yl)-5-methoxy-1-methyl-1H-indol-2-yl)-4H-1,2,4-triazol-3-yl)ethyl)-2-oxa-6-azaspiro[3.3]heptane], for which the IC50 was 0.268 µM.
